Legend:
Type in all cases: biochemical
MMP2 = biological target: T1, MMP2 (Homo sapiens, UniProt P08253); assay: MMP-2 colorimetric inhibition assay (Enzo kit); details: colorimetric thiopeptide substrate, absorbance 415 nm; read-out: MMP2 IC50 class
T1 construct: purchased Enzo Life Sciences, Inc. BML-AK408
Experimental: (§1) The inhibitory activities of the compounds of the invention were assessed in 96-well microplate format using MMP1, MMP2, MMP9 and MMP13 colorimetric assay kits and TACE fluorometric assay kit from Enzo Life Sciences, Inc. The inhibitory effect of the compounds of the invention on ADAM10 activity were evaluated in 96-well microplate format using fluorometric assay from AnaSpec, Inc.
(§2) The MMP-2 Colorimetric Drug Discovery Kit (catalog #BML-AK408) is a complete assay system designed to screen MMP-2 inhibitors using a thiopeptide as a chromogenic substrate (Ac-PLG-[2-mercapto-4-methylpentanoyl]-LG-OC2H5). The MMP cleavage site peptide bond is replaced by a thioester bond in the thiopeptide. Hydrolysis of this bond by an MMP produces a sulfhydryl group, which reacts with DTNB [5,5′-dithiobis(2-nitrobenzoic acid), Ellman's reagent] to form 2-nitro-5-thiobenzoic acid, that can be detected spectrophotometrically.
(§3) The inhibitory activities of the compounds of the invention against MMP1, MMP2, MMP9 and MMP13 were tested according to the manufacturer's assay protocols and the absorbance at 415 nm was monitored using the Tecan Infinite® 200 Pro F Nano^+ microplate reader.
(§4) The normalized values were analyzed using GraphPadPrism 9 for Windows (GraphPad Software, San Diego, CA, USA) software by plotting inhibition curves and determining the IC50 values.
(§5) The calculated IC50 values were divided into the following classes: • A: <50 nM; B: 50-1000 nM; C: >1000-10,000 nM; D: >10,000 nM

MMP9 = biological target: T2, MMP9 (Homo sapiens, UniProt P14780); assay: MMP-9 colorimetric inhibition assay (Enzo kit); details: colorimetric thiopeptide substrate, absorbance 415 nm; read-out: MMP9 IC50 class
T2 construct: purchased Enzo Life Sciences, Inc. BML-AK410
T2 sequence (P14780 94-707): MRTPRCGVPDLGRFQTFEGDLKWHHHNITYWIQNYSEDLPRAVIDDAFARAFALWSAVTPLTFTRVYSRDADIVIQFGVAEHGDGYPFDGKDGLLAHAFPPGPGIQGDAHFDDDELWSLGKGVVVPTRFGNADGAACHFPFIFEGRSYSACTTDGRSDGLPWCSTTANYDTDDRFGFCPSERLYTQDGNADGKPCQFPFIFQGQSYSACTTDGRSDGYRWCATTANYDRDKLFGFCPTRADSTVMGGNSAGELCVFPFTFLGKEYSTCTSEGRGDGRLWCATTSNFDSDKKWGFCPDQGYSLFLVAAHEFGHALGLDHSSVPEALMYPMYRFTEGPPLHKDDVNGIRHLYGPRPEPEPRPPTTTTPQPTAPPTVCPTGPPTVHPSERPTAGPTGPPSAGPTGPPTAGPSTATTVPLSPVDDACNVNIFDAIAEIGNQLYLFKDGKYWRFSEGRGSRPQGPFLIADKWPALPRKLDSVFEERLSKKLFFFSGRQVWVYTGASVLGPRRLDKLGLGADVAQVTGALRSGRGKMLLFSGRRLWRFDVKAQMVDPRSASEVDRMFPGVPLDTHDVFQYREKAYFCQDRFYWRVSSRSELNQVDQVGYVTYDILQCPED
Experimental: as §1
as §2, with “MMP-9” for “MMP-2”, “#BML-AK410)” for “#BML-AK408)”, “screen” for “screen MMP-2”, “inhibitors of matrix metalloproteinase-9” for “inhibitors”
as §3, §4, §5

MMP13 = biological target: T3, MMP13 (Homo sapiens, UniProt P45452); assay: MMP-13 colorimetric inhibition assay (Enzo kit); details: colorimetric thiopeptide substrate, absorbance 415 nm; read-out: MMP13 IC50 class
T3 construct: purchased Enzo Life Sciences, Inc. BML-AK412
Experimental: as §1
as §2, with “MMP-13” for “MMP-2”, “#BML-AK412)” for “#BML-AK408)”, “screen” for “screen MMP-2”, “inhibitors of matrix metalloproteinase-13” for “inhibitors”
as §3, §4, §5

MMP1 = biological target: T4, MMP1 (Homo sapiens, UniProt P03956); assay: MMP-1 colorimetric inhibition assay (Enzo kit); details: colorimetric thiopeptide substrate, absorbance 415 nm; read-out: MMP1 IC50 class
T4 construct: purchased Enzo Life Sciences, Inc. BML-AK404
T4 sequence (P03956 100-469): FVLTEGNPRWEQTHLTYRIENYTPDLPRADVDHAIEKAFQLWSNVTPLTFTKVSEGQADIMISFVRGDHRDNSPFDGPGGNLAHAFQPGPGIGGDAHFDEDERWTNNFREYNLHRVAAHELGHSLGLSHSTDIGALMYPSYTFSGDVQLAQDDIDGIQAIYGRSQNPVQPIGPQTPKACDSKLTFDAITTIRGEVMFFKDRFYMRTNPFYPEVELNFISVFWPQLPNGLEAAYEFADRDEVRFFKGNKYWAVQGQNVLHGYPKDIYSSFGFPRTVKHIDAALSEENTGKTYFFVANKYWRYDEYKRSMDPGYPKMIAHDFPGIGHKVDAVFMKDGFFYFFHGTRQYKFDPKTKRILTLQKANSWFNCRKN
Experimental: as §1
as §2, with “MMP-1” for “MMP-2”, “#BML-AK404)” for “#BML-AK408)”, “screen” for “screen MMP-2”, “inhibitors of matrix metalloproteinase-1” for “inhibitors”
as §3, §4, §5

TACE (ADAM17) = biological target: T5, TACE (ADAM17) (Homo sapiens, UniProt P78536); assay: TACE fluorometric inhibition assay (Enzo kit); details: quenched fluorogenic peptide, ex/em 320 nm/420 nm; read-out: TACE IC50 class
T5 construct: purchased Enzo Life Sciences, Inc. BML-AK310
T5 sequence (P78536 223-474 limits assumed): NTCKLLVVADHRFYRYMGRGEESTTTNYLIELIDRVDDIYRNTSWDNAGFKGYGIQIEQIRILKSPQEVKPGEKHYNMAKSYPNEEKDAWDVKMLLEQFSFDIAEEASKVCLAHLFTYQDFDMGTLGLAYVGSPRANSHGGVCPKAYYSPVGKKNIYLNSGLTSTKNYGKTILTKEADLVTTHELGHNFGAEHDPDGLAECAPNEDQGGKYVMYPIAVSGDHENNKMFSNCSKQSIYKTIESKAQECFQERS
Experimental: as §1
The TACE Fluorometric Drug Discovery Kit (catalog #BML-AK310) is a complete assay system designed to screen ADAM17 (TACE) inhibitors using a quenched fluorogenic peptide: Mca-PLAQAV-Dpa-RSSSR-NH2. Mca fluorescence is quenched by the Dpa group until cleavage by proteases separates the two moieties leading to an increase in Mca fluorescence.
The inhibitory activity of the compounds of the invention against TACE was tested according to the manufacturer's assay protocol and the fluorescence was monitored at excitation/emission wavelengths=320 nm/420 nm using Tecan Infinite® 200 Pro F Nano^+ microplate reader.
as §4, §5

T1 sequence (P08253 110-452 limits assumed): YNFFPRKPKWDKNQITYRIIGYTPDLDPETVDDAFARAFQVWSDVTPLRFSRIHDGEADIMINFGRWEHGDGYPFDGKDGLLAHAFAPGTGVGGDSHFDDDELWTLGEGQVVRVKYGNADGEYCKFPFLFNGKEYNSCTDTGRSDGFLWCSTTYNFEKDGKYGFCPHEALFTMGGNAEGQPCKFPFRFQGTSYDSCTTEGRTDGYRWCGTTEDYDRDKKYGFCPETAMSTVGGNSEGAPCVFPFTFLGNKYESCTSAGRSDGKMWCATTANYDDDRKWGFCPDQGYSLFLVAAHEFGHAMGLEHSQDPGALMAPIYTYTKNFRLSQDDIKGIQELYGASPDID

Row | SMILES | IC50 (MMP2) [nM] | IC50 (MMP9) [nM] | IC50 (MMP13) [nM] | IC50 (MMP1) [nM] | IC50 (TACE (ADAM17)) [nM]
1 | COCCOC(=O)N1CC2CCC(C(=O)NO)(C1)N2S(=O)(=O)c1ccc(Oc2ccc(F)cc2)nc1 (stereo not drawn) [Example 13, 2-methoxyethyl 8-((6-(4-fluorophenoxy)pyridin-3-yl)sulfonyl)-1-(hydroxycarbamoyl)-3,8-diazabicyclo[3.2.1]octane-3-carboxylate] | 50 to 1000 | < 50 | 50 to 1000 | 1000 to 10000 | 1000 to 10000
2 | COCCOC(=O)N1CC2CCC(C(=O)NO)(C1)N2S(=O)(=O)N1CCC(Oc2ccc(F)cn2)CC1 (stereo not drawn) [Example 20, 2-methoxyethyl 8-((4-((5-fluoropyridin-2-yl)oxy)piperidin-1-yl)sulfonyl)-1-(hydroxycarbamoyl)-3,8-diazabicyclo[3.2.1]octane-3-carboxylate] | 50 to 1000 | 50 to 1000 | 50 to 1000 | > 10000 | > 10000
3 | COCCOC(=O)N1CC2CCC(C(=O)NO)(C1)N2S(=O)(=O)N1CCN(Cc2ccc(F)cc2)CC1 (stereo not drawn) [Example 22, 2-methoxyethyl 8-((4-(4-fluorobenzyl)piperazin-1-yl)sulfonyl)-1-(hydroxycarbamoyl)-3,8-diazabicyclo[3.2.1]octane-3-carboxylate] | 1000 to 10000 | 1000 to 10000 | 1000 to 10000 | > 10000 | > 10000

The next lines start with the values.

Row | IC50 (MMP2) [nM] | IC50 (MMP9) [nM] | IC50 (MMP13) [nM] | IC50 (MMP1) [nM] | IC50 (TACE (ADAM17)) [nM] | SMILES
4 | < 50 | < 50 | < 50 | > 10000 | > 10000 | COCCOC(=O)N1CC2CCC(C(=O)NO)(C1)N2S(=O)(=O)c1ccc(Oc2ccc(F)cc2)c(F)c1 (stereo not drawn) [Example 5, 2-methoxyethyl 8-((3-fluoro-4-(4-fluorophenoxy)phenyl)sulfonyl)-1-(hydroxycarbamoyl)-3,8-diazabicyclo[3.2.1]octane-3-carboxylate]
5 | < 50 | < 50 | < 50 | 1000 to 10000 | 1000 to 10000 | COCCOC(=O)N1CC2CCC(C(=O)NO)(C1)N2S(=O)(=O)N1CCC(Oc2ccc(Cl)cc2)CC1 (stereo not drawn) [Example 19, 2-methoxyethyl 8-((4-(4-chlorophenoxy)piperidin-1-yl)sulfonyl)-1-(hydroxycarbamoyl)-3,8-diazabicyclo[3.2.1]octane-3-carboxylate]
6 | < 50 | 50 to 1000 | 50 to 1000 | > 10000 | > 10000 | COCCOC(=O)N1CC2CCC(C(=O)NO)(C1)N2S(=O)(=O)N1CCC(Oc2ccncc2)CC1 (stereo not drawn) [Example 21, 2-methoxyethyl 1-(hydroxycarbamoyl)-8-((4-(pyridin-4-yloxy)piperidin-1-yl)sulfonyl)-3,8-diazabicyclo[3.2.1]octane-3-carboxylate]

From patent US20250026761A1, “DIAZABICYCLOOCTANE DERIVATIVES USEFUL AS MATRIX METALLOPROTEINASE INHIBITORS” (VASA THERAPEUTICS SPÓLKA Z OGRANICZONA ODPOWIEDZIALNOSCIA, priority 2021, published 2025)
